We go through 3 compounds from patent publication US20050101655A1, “Migraine treatments including isovaleramide compounds and serotonin agonists” (priority 2003, published 2005).

The test system of one series is mice. As to the kind of experiment: hot plate test in mice (foot licking latency). The class given is in vivo. To be noted: 600 orally, 60 minutes after administration, hot plate 54° C., compared to vehicle.
The test system of series [1] is chronic spinalized rats. The series can be described thus: observational scoring of hyperreflexia elicited by an innocuous stimulus in chronic spinalized rats. To be noted: 300 mg/kg i.p. The class given is in vivo. On the procedure:
(§1) Assessment of hyperreflexia, pain, and muscle tone in chronic spinally transected rats was conducted using male albino Holtzman-derived rats (available from Harlan Sprague-Dawley Laboratories) weighing 270-530 grams as subjects. The rats were housed independently and had continuous access to food and water throughout the experiments. All procedures were reviewed and approved by the Institutional Animal Care and Use Committee. Animals were anesthetized using a mixture of isoflurane and oxygen at a flow rate of 4 liters/minute.
(§2) The rats were placed in a stereotaxic frame and anesthesia was maintained. An incision was made so that the paraspinal muscles could be retracted and a laminectomy performed between T6-T9. A one- to two-millimeter portion of the spinal cord was removed by evacuation and replaced with gel foam to reduce bleeding, after which the incision was closed in layers.
Following the transection, rats were placed in a room in which the ambient temperature was raised to about 80° F. with a space heater to maintain body temperature. On the following morning post-surgery, the hindquarters of the spinalized rats were bathed and their urine expressed manually by applying pressure to their bladders. Experiments were conducted between 21 and 28 days after surgery. For the first two weeks post-surgery, 0.25 ml of the antibiotic Sulfatrim Pediatric Suspension was orally administered to the rats to prevent bladder infection. […] Within approximately two weeks, all animals regained bladder control and were no longer given antibiotic treatment. […]
Initial assessment of hyperreflexia was performed by the subjective scoring method of rating the resulting hyperreflexia response elicited with an innocuous stimulus, such as a metal probe. […] The response was evaluated for each of four trials using a scale ranging from zero (no response in all four trials) to four (a maximum, tonic-clonic reaction elicited in all four trials). […] The raw or normalized scores were analyzed with a one-way repeated measures ANOVA. […]

Series [2] is described as follows: oral absorption / bioavailability of isovaleramide. To be noted: in vivo.
The subject of series [3] is chronic spinalized rats. The series can be described thus: polysynaptic flexor-reflex responses (EMG) in chronic spinalized rats. It counts as in vivo. The settings on record: for total reduction of the flexor reflex (total area under the curve): two-hour measurement period, several doses, vs vehicle. On the procedure:
as §1, §2
Following the transection, rats were placed in a room in which the ambient temperature was raised to about 80° F. with a space heater to maintain body temperature. On the following morning post-surgery, the hindquarters of the spinalized rats were bathed and their urine expressed manually by applying pressure to their bladders. Experiments were conducted between 21 and 28 days after surgery. For the first two weeks post-surgery, 0.25 ml of the antibiotic Sulfatrim Pediatric Suspension was orally administered to the rats to prevent bladder infection. […]
With reference to FIG. 3, polysynaptic flexor-reflex responses, elicited by stimuli that activate high-threshold afferents, were recorded as EMG activity from the ipsilateral hamstring muscle. […] The flexor reflex was recorded, in both the pre-drug and the post-drug periods, every 30 minutes once a stable baseline response was achieved. […] The responses were determined in spinalized rats by observing the flexor-reflex response before treatment and at each of 30, 60, 90, and 120 minutes following administration of isovaleramide (300 mg/kg p.o.), baclofen (10 mg/kg s.c.) and vehicle (water, 12 ml/kg p.o.), respectively. […]

In the next series the test system is migraine symptoms. To be noted: reported; cited from earlier work.

Regarding `CC(C)CC(N)=O` [isovaleramide, Isovaleramide], the foot licking latency result with mice is “increased foot licking latency”. In addition, the “overt behavioral toxicity or motor impairment” value with chronic spinalized rats [1] (chronic spinalized rats) was “No overt behavioral toxicity or motor impairment”. Besides, in the series with chronic spinalized rats [1] (15, 30, 60 and 120 minutes post-administration), the “reduction of hyperreflexia scores” value was 45-65%. Further, the “hyperreflexia scores by the next day” value in the series on chronic spinalized rats [1] (1440 minutes (24 hours)) is listed as “essentially returned to baseline values”. The compound further showed a bioavailability in series [2] of roughly 100%. Further, the “magnitude of the flexor-reflex responses” value in the series with chronic spinalized rats [3] (300 mg/kg p.o., 30, 60, 90 and 120 minutes, compared with baclofen 10 mg/kg s.c.) was “reduce the magnitude of the flexor-reflex responses”. The “total reduction of the flexor reflex (total area under the curve)” value in the series on chronic spinalized rats [3] is “dose-dependent reduction of the flexor reflex”.

`NCC(CC(=O)O)c1ccc(Cl)cc1` (stereo not drawn) [baclofen, reference compound]: in the series on chronic spinalized rats [3], the “total reduction of the flexor reflex (total area under the curve)” value is given as “dose-dependent reduction of the flexor reflex”.

For the compound `CNS(=O)(=O)Cc1ccc2[nH]cc(CCN(C)C)c2c1` [sumatriptan], in the series with migraine symptoms, the “patients with relief of the migraine symptoms” value is reported as “approximately 40%”.
